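Interpolation was linear, between the two tested concentrations surrounding the appropriate level; five concentrations were tested over 48 hours in 96-well plates. At the GI50, growth is halved. Definition used: TGI = concentration required for complete inhibition of growth.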
Legend:
Experiment in all cases: NCI anticancer screen, dose series, 48 h
SK-MEL-5 melanoma = test system: SK-MEL-5 melanoma
NCI-H226 lung = test system: NCI-H226 lung
NCI-H522 lung = test system: NCI-H522 lung
MALME-3M melanoma = test system: MALME-3M melanoma
ACHN renal = test system: ACHN renal
TK-10 renal = test system: TK-10 renal
MDA-MB-231 breast = test system: MDA-MB-231 breast
BT-549 breast = test system: BT-549 breast
NCI/ADR-RES ovarian = test system: NCI/ADR-RES ovarian
SR leukemia = test system: SR leukemia

SMILES | TGI (SK-MEL-5 melanoma) [µM] | TGI (NCI-H226 lung) [µM] | TGI (NCI-H522 lung) [µM] | TGI (MALME-3M melanoma) [µM] | TGI (ACHN renal) [µM] | TGI (TK-10 renal) [µM] | TGI (MDA-MB-231 breast) [µM] | TGI (BT-549 breast) [µM] | TGI (NCI/ADR-RES ovarian) [µM] | GI50 (MDA-MB-231 breast) [µM] | GI50 (SK-MEL-5 melanoma) [µM] | GI50 (NCI-H226 lung) [µM] | GI50 (SR leukemia) [µM] | TGI (SR leukemia) [µM] | GI50 (NCI-H522 lung) [µM] | GI50 (ACHN renal) [µM] | GI50 (NCI/ADR-RES ovarian) [µM] | GI50 (MALME-3M melanoma) [µM] | GI50 (TK-10 renal) [µM] | GI50 (BT-549 breast) [µM]
COC(=O)C1CCc2c1c(=O)n1c([nH]c3ccccc31)c2C#N (stereo unspecified) | > 100 | > 100 | > 100 | > 100 | > 100 | > 100 |  |  |  |  |  |  |  |  |  |  |  |  |  | 
c1ccc([P+](CCSCCSCC[P+](c2ccccc2)(c2ccccc2)c2ccccc2)(c2ccccc2)c2ccccc2)cc1 | > 100 | > 100 |  |  | > 100 | > 100 | > 100 | > 100 | > 100 |  |  |  |  |  |  |  |  |  |  | 
COc1ccc(C(c2cc(OC)c(OC)c(OC)c2)n2ccnc2)cc1O (stereo unspecified) | 3.18 | > 100 | 0.76 |  | > 100 |  | > 100 |  | > 100 | 0.664 | 0.367 | 0.64 | 0.182 | > 100 | 0.247 | 0.693 | 1.92 |  |  | 
COc1ccc(NC(=O)C(=O)c2c(O)c3ccc(O)cc3oc2=O)c([N+](=O)[O-])c1 | > 100 | > 100 | > 100 | > 100 | > 100 | > 100 |  |  |  |  |  |  |  |  |  |  |  |  |  | 
COc1ccc(C/C(=N/O)C(=O)NCCc2cc(Br)c(OCCCN(C)C)c(Br)c2)cc1Br |  |  | 31.5 | 44.6 | 30 | 59.8 |  |  |  |  |  |  |  |  |  |  |  |  |  | 
C[C@@H](NC1CCCC[C@H]1O)c1ccccc1 (stereo partly specified) | > 100 | > 100 | > 100 | > 100 | > 100 | > 100 |  |  |  |  |  |  |  |  |  |  |  |  |  | 
O=C(Oc1cccc2cccnc12)c1cc2c(cc1Cl)SC(N(c1ccc(F)cc1)S(=O)(=O)c1ccc(Br)s1)=NS2(=O)=O | 39.8 | > 100 | 48.3 | 49.6 | > 100 | > 100 | > 100 |  | 66.4 | 23.6 | 18.2 | 66.4 | 46.2 | > 100 | 19.6 | 33.8 | 18.2 | 18.8 | 38.1 | 
COC(=O)CC(NC(=O)OCc1ccccc1)C(C(C)=O)C(=O)OCc1ccccc1 (stereo unspecified) | > 31.6 |  | > 31.6 |  | > 31.6 | > 31.6 |  |  |  |  |  |  |  | > 100 |  |  |  |  |  | 
O=C(c1ccccc1)c1c(CC(O)c2ccccn2)n(C(=O)c2ccccc2)c2ccccc12 (stereo unspecified) | 27.3 | 54 | 47.2 | 46 | 96.6 | > 100 |  |  |  |  |  |  |  | 50 |  |  |  |  |  | 
CC1=Nc2ccccc2S/C1=C(/C)NNS(=O)(=O)c1ccc(C)cc1 | > 100 | > 100 | > 100 | > 100 | > 100 | > 100 |  |  |  |  |  |  |  | > 100 |  |  |  |  |  | 
CCN(CC)C(=O)Cc1c(C(=O)N(CC)CC)c(=O)nc2sccn12 |  | > 100 | > 100 | > 100 | > 100 | > 100 |  |  |  |  |  |  |  | > 100 |  |  |  |  |  | 
CCOC(=O)/C(=C/N1CCN(C(=O)c2ccco2)C1=S)C(=O)c1ccccc1 | < 0.005 |  |  | 48.4 | 17.6 | 34 | 33.2 | 25 |  | 10.8 | < 0.005 |  | 2.35 | 16.4 |  | 8.48 |  | 13.3 | 12.4 | 8.96
CCOC(=O)C1Cc2c(cc3c4c(cccc24)N(C(C)=O)C3)N(C)C1 (stereo unspecified) | > 100 | 9.37 | 1.3 | > 100 | > 100 | > 100 | 5.71 |  |  |  |  |  |  | > 100 |  |  |  |  |  | 
CC(C)(O)[C@@H]1CC[C@@]2(C)CCCC(O)C2(O)C1 (stereo partly specified) | > 100 | > 100 | > 100 | > 100 | > 100 | > 100 |  |  |  |  |  |  |  | > 100 |  |  |  |  |  | 
CCC(C)CCOC(=O)c1ccc(N=Cc2ccc(C=Nc3ccc(C(=O)OCCC(C)CC)cc3)cc2)cc1 (stereo unspecified) | > 100 | > 100 | > 100 | > 100 | > 100 |  |  |  |  |  |  |  |  | > 100 |  |  |  |  |  | 
Cc1c(Cl)cccc1NC(=O)C(=O)C(C(=O)c1ccccc1-c1ccccc1)C1OC(=O)c2ccccc21 (stereo unspecified) | 29.9 | 18.1 | 26.4 | 28.8 |  | 57.6 |  |  |  |  |  |  |  |  |  |  |  |  |  | 
Cn1cc(C(=O)c2ccccc2)c2ccccc2c1=O | > 100 |  | > 100 | > 100 | > 100 | > 100 |  |  |  |  |  |  |  | > 100 |  |  |  |  |  | 
COc1ccc(C2=C(Cl)c3cc(OC)c(OC)cc3C2OC)cc1OC (stereo unspecified) | > 100 | > 100 | > 100 | > 100 | > 100 | > 100 |  |  |  |  |  |  |  |  |  |  |  |  |  | 
O=C(NCCCCCCCCCCCCNC(=O)c1cccc2ccccc12)c1cccc2ccccc12 | > 100 | > 82.2 | > 100 | > 100 | > 100 | > 87.1 |  |  |  |  |  |  |  | > 100 |  |  |  |  |  | 

SMILES | TGI (SK-MEL-5 melanoma) [µM] | TGI (NCI-H226 lung) [µM] | TGI (NCI-H522 lung) [µM] | TGI (MALME-3M melanoma) [µM] | TGI (ACHN renal) [µM] | TGI (TK-10 renal) [µM] | TGI (MDA-MB-231 breast) [µM] | TGI (BT-549 breast) [µM] | TGI (NCI/ADR-RES ovarian) [µM] | GI50 (MDA-MB-231 breast) [µM] | GI50 (SK-MEL-5 melanoma) [µM] | GI50 (NCI-H226 lung) [µM] | GI50 (SR leukemia) [µM] | TGI (SR leukemia) [µM] | GI50 (NCI-H522 lung) [µM] | GI50 (ACHN renal) [µM] | GI50 (NCI/ADR-RES ovarian) [µM] | GI50 (MALME-3M melanoma) [µM] | GI50 (TK-10 renal) [µM] | GI50 (BT-549 breast) [µM]
O=C1NC(Cc2ccc(O)cc2)C(=O)N2CCCC12 (stereo unspecified) | > 100 | > 100 | > 100 | > 100 | > 100 | > 100 |  |  |  |  |  |  |  | > 100 |  |  |  |  |  | 
Cc1nc(-n2nc(-c3ccccc3)cc2-c2ccccc2)sc1C(=O)/C=C/c1ccc(/C=C/C(=O)c2sc(-n3nc(-c4ccccc4)cc3-c3ccccc3)nc2C)cc1 |  | 71.2 | 34.4 | 40.2 | 40.2 | 87.6 |  |  |  |  |  |  |  | 72.4 |  |  |  |  |  | 
Cc1cn(C2CC(O)C(COC(=O)c3ccccc3)O2)c(=O)[nH]c1=O (stereo unspecified) | > 100 |  | > 100 | > 100 | > 100 | > 100 |  |  |  |  |  |  |  | > 100 |  |  |  |  |  | 
COC(=O)C(Cc1cc(OC)c(OC)c(OC)c1)C(=O)OC | > 320 |  | > 320 | > 320 | > 320 | > 320 |  |  |  |  |  |  |  | > 320 |  |  |  |  |  | 
N.N.N.N.N.[Co+3].[I-].[N-]=[N+]=[N-] | > 100 |  | > 100 | > 100 | > 100 | > 100 |  |  |  |  | > 100 |  |  |  | > 100 | > 100 |  | > 100 | > 100 | 
N#CCCN(c1ccc(C=Nc2ccccc2)cc1)S(=O)(=O)c1ccccc1 | > 100 | > 100 | > 100 | > 100 |  | > 100 |  |  |  |  |  |  |  | > 100 |  |  |  |  |  | 
N#Cc1cccc2c1Nc1ccccc1S2 | > 100 | > 100 | > 100 | > 100 | > 100 | > 100 |  |  |  |  |  |  |  | > 100 |  |  |  |  |  | 
CN1c2ccccc2N(C(=O)c2ccc([N+](=O)[O-])cc2)C(CC(=O)O)c2cccn21 (stereo unspecified) | > 100 | > 100 | > 100 | > 100 | > 100 | > 100 |  |  |  |  |  |  |  |  |  |  |  |  |  | 
COC(=O)CCC(NC(=S)N/N=C(\C)c1cnc2ccccc2n1)C(=O)OC (stereo unspecified) | 80.7 | > 100 | 38.2 | > 100 | 89.2 | > 100 |  |  |  |  |  |  |  | 42.8 |  |  |  |  |  | 
Cn1c2c(c3ccccc31)CCN(CCCCN1CCCCC1)C2=O | > 100 |  | > 100 |  | > 100 | > 100 |  |  |  |  |  |  |  |  |  |  |  |  |  | 
O=C(N/C(=C\c1ccc(Cl)cc1)c1nc2ccccc2[nH]1)c1ccccc1 | 35.3 | 44.9 | 30.7 | > 100 | 80.5 | 63.8 |  |  |  |  |  |  |  |  |  |  |  |  |  | 
CCN(CC)c1cccc2c1/C(=N/O)CCCC2 | > 100 | > 100 | > 100 | > 100 | > 100 | > 100 |  |  |  |  |  |  |  | > 100 |  |  |  |  |  | 
COc1ccc2c(c1OC)C[C@@H]1c3c(cc4c(c3-2)OCO4)CCN1C | 38.1 | 47 | 62.9 | > 100 | > 100 | 74.6 | > 100 | > 100 |  |  |  |  |  | 54.3 |  |  |  |  |  | 
CC(C)OP(=O)(OC(C)C)/C(Cl)=N/Nc1ccc([N+](=O)[O-])cc1 | > 100 |  | > 100 | > 100 | > 100 | > 100 |  |  |  |  |  |  |  | > 100 |  |  |  |  |  | 
CCCNC(=S)/N=C/c1c(O)cc(C)oc1=O | > 100 | > 100 |  |  | > 100 | > 100 | > 100 | > 100 | > 100 |  |  |  |  |  |  |  |  |  |  | 
C/C(=C1/N=C(c2cc([N+](=O)[O-])ccc2Cl)N(c2cccc(C)c2)C1=O)c1cc2ccccc2oc1=O | 53.8 | > 100 | > 100 | > 100 | > 100 | > 100 |  |  |  |  |  |  |  | > 100 |  |  |  |  |  | 
CN(CCN1C(=O)c2cc([N+](=O)[O-])cc3cc([N+](=O)[O-])cc(c23)C1=O)CCN1C(=O)c2cc([N+](=O)[O-])cc3cc([N+](=O)[O-])cc(c23)C1=O | 8.49 | 9.69 | 1.86 | 4.31 | > 100 | > 100 |  |  |  |  |  |  |  |  |  |  |  |  |  | 
O=C1C2Nc3ccccc3SC2C(=O)N1c1ccc(Br)cc1 (stereo unspecified) | 55.3 | 92.4 | 89.8 | > 100 | > 100 | > 100 |  |  |  |  |  |  |  |  |  |  |  |  |  | 
CN1C(=O)CCC1(O)C1C=CC=CC1 (stereo unspecified) | > 100 | > 100 | > 100 | > 100 | > 100 | > 100 |  |  |  |  |  |  |  | > 100 |  |  |  |  |  | 
